{"source": "patent US5190753A", "about": "“3-phenyl-5,6-dihydrobenziciacridine-7-carboxylic acids and related compounds as immunosuppressive agents” (Du Pont Merck Pharmaceutical Company, priority 1992, dated 1993)", "key": {"[1]": {"test_system": "human mixed lymphocyte reaction (peripheral blood mononuclear cells, PBMC)", "assay": "Human mixed lymphocyte reaction (3H-thymidine incorporation)", "format": "cell-based", "procedure": "Blood was obtained by venipuncture from two nonrelated human donors. Peripheral blood mononuclear cells (PBMC) were isolated from these samples by using the Leuco Prep procedure (Becton-Dickinson). PBMC were washed twice in phosphate buffered saline (without calcium and magnesium) and the separate cell isolations were adjusted to the appropriate concentrations in media (RPMI 1640) supplemented with 10% human AB serum and […] gentamicin. Cells from donor A (2×10^5) were incubated with cells from donor B (2×10^5) in 96 well round bottom microliter plates at 37° C., 5% CO2 for 6 days. Eighteen hours prior to harvesting cells from the plates, all wells were pulsed with 1 μCi of ^3 H-thymidine. Cells from the plates were harvested on day-6 and 3H-thymidine incorporation was determined using a scintillation counter.\nThe human mixed lymphocyte reaction model, is an in vitro model for transplantation rejection."}, "[2]": {"test_system": "contact sensitivity response to 2,4-dinitrofluorobenzene (DNFB) in Balb/c female mice", "assay": "Contact sensitivity response to DNFB in mice (delayed-type hypersensitivity, ear swelling)", "format": "in vivo", "procedure": "Balb/c female mice (.perspectiveto. 20 g; Charles River) were sensitized on the shaved abdomen with 25 μl of 0.5% 2,4-dinitrofluorobenzene (DNFB, Eastman Kodak Co.) in a vehicle of 4:1 acetone:olive oil on days 0 and 1. Mice were ear challenged with 20 μl of 0.2% DNFB in a vehicle of 4:1 acetone:olive oil on day-5. An identical segment of the ear was measured immediately before challenge and 24 hours later with an engineer's micrometer. Ear swelling was expressed as the difference in ear thickness before and after challenge in units of 10^-4 inches ± SEM. Percent suppression was calculated as: [formula] Compounds were administered orally from day-2 through day-6 and were prepared in 0.25% Methocel® (Dow Chemical Co.). Control animals received only vehicle (0.25% Methocel®). Negative controls were not sensitized on days 0 and 1 but were ear challenged on day-5. Ten mice were used per group.\nContact sensitivity to DNFB is a form of delayed-type hypersensitivity which has been extensively studied to gain an understanding of the regulation of immunologic processes (Claman et al. (1980), Immunological Rev. 50:105-132). This reaction is mediated by T lymphocytes that become sensitized to antigen by proliferating and developing into mature effector cells (Claman et al. (1980), Immunological Rev. 50:105-132). This cell-mediated immune response (T-cell mediated immunity) is central to many disease states such as organ transplantation rejection and graft versus host disease (Benacerraf and Unanue (1979), Textbook of Immunology, Williams & Wilkins Co.; Eisen (1980), Immunology, An Introduction to Molecular and Cellular Principles of the Immune Responses, Harper & Row, Inc.; Loveland and McKenzie (1982), Immunology 46:313-320; Gallin et al. (1988), Inflammation, Basic Principles and Clinical Correlates, Raven Press). […]"}, "[3]": {"conditions": "clinical use; cited from earlier work"}}}
{"smiles": "O=C([O-])c1c2c(nc3ccc(F)cc13)-c1ccc(-c3ccccc3)cc1CC2.[Na+]", "note": "[Example 12, 5,6-dihydro-9-fluoro-3-phenylbenz-[c]acridine-7-carboxylic acid, sodium salt]", "values": [{"measurement": "IC50", "setting": "[1]; Homo sapiens, Lymphocyte, 6 days incubation, 3H-thymidine pulse 18 hours prior to harvest", "result": 65, "unit": "nM"}, {"measurement": "human mixed lymphocyte reaction (in words)", "setting": "[1]; statement in words, compared with CSA", "result": "comparable to CSA"}, {"measurement": "% Suppression", "setting": "[2]; 20.0 mg/kg orally, day-2 through day-6, of ear swelling", "result": 99.75, "unit": "%"}, {"measurement": "Ear Swelling (increase in ear thickness from day 5 to day 6)", "setting": "[2]; 20.0 mg/kg orally, day-2 through day-6, units ± SEM, ten mice per group, 24 hours after challenge", "result": "2.44 ± 1.62 10^-4 inches"}, {"measurement": "immunosuppressive activity (in words)", "setting": "[2]; statement in words", "result": "have immunosuppressive activity"}]}
{"smiles": "Cn1cnc([N+](=O)[O-])c1Sc1ncnc2nc[nH]c12", "note": "[azathioprine]", "values": [{"measurement": "Significant clinically observed toxicities", "setting": "[3]", "result": "hepatoxicity"}]}
